According to patent US20210322509A1, “Methods for Reducing Perinatal Morbidity and / or Mortality” (CHU SAINTE-JUSTINE, priority 2016, published 2021):
Non-standard residues stand in square brackets, D forms with d. Residues, ends and D or L forms follow the SMILES beside them. ξ: configuration not given here. dThr(3ξ) = CC(O)[C@@H](N)C(=O)O

Experiments:
[1] = test system: lungs of pups from IL-1β-treated dams; assay: Lung histology (alveoli count, architecture) at PT15; type: in vivo, mice; conditions: for damages to lung architecture caused by IL-1β: histology
Description: One-way ANOVA compared to IL-1β+Veh. *p<0.05, ***p<0.001. Sham (n=6 pups), IL-1β (n=3 pups), IL-1β+Compound 1 (n=6 pups), IL-1β+Kin (n=8 pups).
(§1) Histology. Intestines (from ileum to rectum) and lungs of post-term (PT) 15 mice were collected and fixed in 10% formalin during >48 h and were coated in paraffin. Samples were cut with a microtome (thickness=[…]) and mounted on lamella. Intestines were colored using hematoxylin-phloxine-saffron (HPS), whereas lungs were colored using H&E. Images were taken with a slidescanner (Axioscan®). Quantification of images was performed under blind evaluation of groups using Zen2 software.
The effect of gestational inflammation on the development of the exposed fetuses was studied. At post-term day (PT) 15, the pups from IL-1β-treated dams were sacrificed, and histological analysis of major organs known to be affected by prematurity/gestational inflammation (the lung, the intestines and the brain) was performed. For the lung, a blind count of alveoli was performed using ImageJ.

[2] = test system: intestines of pups from IL-1β-treated dams; assay: Histology of ileum and colon (crypts, resident lymph nodes); type: in vivo, mice; conditions: for atrophies in intestinal crypts of the ileum: histology; for number of resident lymph nodes in the colon / size of resident lymph nodes in the colon: relative to vehicle
Description: FIG. 6A to 6D show representative histological analyses of the ileum of neonates from sham (FIG. 6A) and IL-1β-treated dams administered with vehicle (FIG. 6B), Compound 1 (FIG. 6C) or Kineret (FIG. 6D). Arrows indicate crypts. Scale, […].
FIGS. 7A and 7B show the number and size, respectively, of resident lymph nodes in the colon of neonates from sham and IL-1β-treated dams administered with vehicle, Compound 1 or Kineret. Sham (n=6 pups), IL-1β (n=3 pups), IL-1β+Compound 1 (n=6 pups), IL-1β+Kin (n=8 pups).
as §1
Potential damages to the ileum and in the colon were evaluated by histologic analyses. In the ileum, pups from IL-1β-treated dams administered with vehicle had consistent atrophies in their intestinal crypts (FIG. 6B), and this was not observed following administration of compound 1 (FIG. 6C) or Kineret® (FIG. 6D). In the colon, the number of resident lymph nodes per cm, and their size, were measured. Since lymph nodes are part of the innate immunity and play an important role in the immune surveillance of the colon, the number and size of resident lymph nodes is a marker of the immune integrity/health of the intestine.

[3] = test system: Il1a, Il1b, Il6 and Tnfa mRNA in fetal head; assay: LPS-induced cytokine gene expression in fetal brain (qPCR); type: in vivo, C57Bl/6 mice
Description: FIGS. 10A to 10D show the induction of pro-inflammatory cytokines in fetal brain after maternal LPS administration is suppressed by compound 2 (cmpd2) in mice. C57Bl/6 mice were mated to males of the same genotype, administered LPS with or without compound 2 and fetal head were recovered. Relative expression of Il1a (FIG. 10A), IL6 (FIG. 10B), TNF (FIG. 10C) and IL1B (FIG. 10D) mRNAs were determined in each tissue by qPCR and normalized to Actb. Data are shown as mean±SEM relative gene expression in tissue pooled from two implantation sites with n=6 dams/group. The effect of LPS and compound 2 was analyzed by Kruskal-Wallis and Mann-Whitney U-test. #* indicates significant differences between groups, p<0.05.
Animal and treatments. To analyze effects of compound 2 on LPS-induced cytokine expression in the fetal brain after inflammatory stimulus mimicking infection in utero, pregnant female C57Bl/6 female mice (mated with C57Bl/6 males) were injected with 0.5 μg lipopolysaccharide (LPS; Salmonella typhimurium; Sigma-Aldrich®, St. Louis, Mo., USA) in 200 μl PBS i.p., or PBS control, at 1100 h on gd 16.5. Mice were immediately administered compound 2 (1 mg/kg in PBS) or vehicle control (PBS+0.1% BSA) within 5 mins of LPS injection on gd 16.5, then killed 4 h later. Brain tissues were recovered by severing the fetal head from 2 fetuses from each of […] per treatment group.
Expression of inflammatory markers. Messenger RNA (mRNA) was extracted by homogenizing tissues using ceramic beads (Mo Bio) in Trizol® (Ambion® RNA, Carlsbad Calif.). […] Primer pairs specific for published cDNA sequences were designed using Primer Express® software (Applied Biosystems®, Foster City, Calif.) to quantify Il1a, Il1b, Il6 and Tnfa mRNA. […] Data were normalized to β-actin mRNA expression and expressed as ΔΔCT using the formula mRNA level=[…]. […] Data were tested for normality using a Shapiro-Wilk test then analyzed by Kruskal-Wallis and Mann-Whitney U-test since data were not normally distributed. […]

| Compound | damages to lung architecture caused by IL-1β [1] | alveoli count per mm^2 ([1]; pups from IL-1β-treated dams) | number of alveoli per mm^2 compared with Kineret-treated group ([1]; pups from IL-1β-treated dams) | atrophies in intestinal crypts of the ileum [2] | number of resident lymph nodes in the colon [2] | size of resident lymph nodes in the colon [2] | expression of Il1a, Il1b and Il6 in fetal head relative to PBS control ([3]; LPS + compound 2) | expression of Il1a, Il1b and Il6 in fetal head relative to PBS control ([3]; compound 2 alone (no LPS)) | expression of Il1a, IL6, TNF and IL1B in fetal head, reduction relative to LPS alone ([3]; dams given LPS 0.5 μg i.p. gd 16.5 + compound 2 1 mg/kg, 4 h later) |
| --- | --- | --- | --- | --- | --- | --- | --- | --- | --- |
| CC(C)C[C@@H](NC(=O)[C@@H](CCC(=O)O)NC(=O)[C@H](NC(=O)[C@H](NC(=O)[C@@H](Cc1ccc(O)cc1)NC(=O)[C@H](N)CCCNC(=N)N)C(C)O)C(C)C)C(=O)N[C@H](C)C(N)=O (stereo partly drawn) [compound 1] (H-[dR][dY][dThr(3ξ)][dV][dE][dL][dA]-NH2) | prevents the damages to lung architecture | completely restored the alveoli count | significantly higher | not observed | prevented | prevented |  |  |  |
| CC(C)C[C@@H](NC(=O)[C@@H](CCC(=O)O)NC(=O)[C@H](NC(=O)[C@H](NC(=O)[C@@H](Cc1ccc(O)cc1)NC(=O)[C@H](N)CCCNC(=N)N)C(C)O)C(C)C)C(=O)N[C@H](C)C(=O)O (stereo partly drawn) [compound 2] (H-[dR][dY][dThr(3ξ)][dV][dE][dL][dA]-OH) |  |  |  |  |  |  | no change | did not significantly alter | 40-60% |
| Kineret: recombinant form of the human interleukin-1 receptor antagonist (IL-1Ra), purchased from Swedish Orphan Biovitrum AB | a more modest effect | only partially restored the alveoli count |  | not observed | not increased at statistically significant levels | significant increase |  |  |  |
